Results: the supplement of paper PMC13380429
± gives the standard deviation of the averaged measurements.

Columns and labels:
U2OS [1] = assay: cell viability relative to DMSO; higher = less toxic; conditions: 72 h
HepG2 [2] = assay: as above; conditions: 72 h
Calu-3 [3] = assay: as above; conditions: 72 h
Vero E6 [4] = assay: as above; conditions: 72 h
Caco-2 [5] = assay: as above; conditions: 72 h
U2OS [6] = assay: drug sensitivity score (DSS) for viability; higher = more toxic; extreme values may be limits of the assay; conditions: 72 h
HepG2 [7] = assay: as above; conditions: 72 h
Calu-3 [8] = assay: as above; conditions: 72 h
Vero E6 [9] = assay: as above; conditions: 72 h
Caco-2 [10] = assay: as above; conditions: 72 h
U2OS [11] = assay: relative viability EC50 (midpoint between 100% and the lowest measured viability); higher = less toxic; conditions: 72 h
HepG2 [12] = assay: as above; conditions: 72 h
Calu-3 [13] = assay: as above; conditions: 72 h
Vero E6 [14] = assay: as above; conditions: 72 h
Caco-2 [15] = assay: as above; conditions: 72 h
[16] = test system: A549-ACE2 infected with SARS-CoV-2; assay: SARS-CoV-2 infection rate relative to DMSO; higher = more infection; conditions: 24 h
[17] = test system: A549-ACE2 infected with SARS-CoV-2; assay: cell count relative to DMSO; higher = less toxic; conditions: 24 h
[18] = test system: A549-ACE2 infected with SARS-CoV-2; assay: morphology score (similarity to uninfected cells); higher = more like uninfected cells; conditions: 24 h
A549-ACE2 = assay: drug-induced phospholipidosis relative to tamoxifen; higher = more phospholipidosis

COC[C@H](NC(=O)c1cnc(C)s1)C(=O)N[C@@H](COC)C(=O)N[C@@H](Cc1ccccc1)C(=O)[C@@]1(C)CO1 [oprozomib]
Conditions | SARS-CoV-2 infection rate, [16] [%] | cell count, [17] [%] | cell viability, Caco-2 [5] [%] | cell viability, Calu-3 [3] [%] | cell viability, HepG2 [2] [%] | cell viability, U2OS [1] [%] | cell viability, Vero E6 [4] [%] | morphology score, [18]
1 nM | – | – | 103 | 92.4 | 114 | 103 | 106 | –
10 nM | – | – | 94.8 | 102 | 99.3 | 93.8 | 103 | –
100 nM | – | – | 18.9 | 25.4 | 27.5 | 53.9 | 72.4 | –
0.1 µM | 76 | 87 | – | – | – | – | – | 0.41
0.3 µM | 95 | 83 | – | – | – | – | – | 0.31
1000 nM | – | – | 8.5 | 4.2 | 4.6 | 0.2 | 16.3 | –
1 µM | 64 | 74 | – | – | – | – | – | 0.24
3 µM | 33 | 59 | – | – | – | – | – | 0.24
10000 nM | – | – | 5.5 | 4.5 | -0.1 | -0.3 | 4.2 | –

Conditions | drug sensitivity score | relative viability EC50 [µM]
Caco-2 [10] | 27.4 | –
Caco-2 [15] | – | 0.0409
Calu-3 [8] | 25.9 | –
Calu-3 [13] | – | 0.0607
HepG2 [7] | 26.4 | –
HepG2 [12] | – | 0.0661
U2OS [6] | 23.3 | –
U2OS [11] | – | 0.109
Vero E6 [9] | 18.7 | –
Vero E6 [14] | – | 0.209

A549-ACE2, 24 h
Conditions | drug-induced phospholipidosis [%]
0.3 µM | -19.8
0.833333 µM | -14.9
3.33333 µM | -36.6

N#CC[C@@H](C1CCCC1)n1cc(-c2ncnc3[nH]ccc23)cn1 [ruxolitinib-(S)]
Conditions | SARS-CoV-2 infection rate, [16] [%] | cell count, [17] [%] | cell viability, Caco-2 [5] [%] | cell viability, Calu-3 [3] [%] | cell viability, HepG2 [2] [%] | cell viability, U2OS [1] [%] | cell viability, Vero E6 [4] [%] | morphology score, [18]
1 nM | – | – | 103 ± 2.2 | 91.4 | 101 ± 11 | 100 ± 3.2 | 98.5 ± 2 | –
10 nM | – | – | 99 ± 1.1 | 97.1 | 96 ± 3.6 | 99.1 ± 5 | 101 ± 2.9 | –
100 nM | – | – | 106 ± 0.99 | 99 | 92.3 ± 6.9 | 99.3 ± 1.6 | 98.2 ± 2.5 | –
0.3 µM | 109 | 88 | – | – | – | – | – | 0.15
1000 nM | – | – | 93.6 ± 1.1 | 102 | 103.3 ± 0.99 | 97.5 ± 1.1 | 96.5 ± 3 | –
3 µM | 110 | 100 | – | – | – | – | – | 0.17
10000 nM | – | – | 99.6 ± 3.5 | 112 | 97.4 ± 12 | 95.8 ± 1.5 | 94.05 ± 0.78 | –
10 µM | 112 | 91 | – | – | – | – | – | -0.08
30 µM | 119 | 36 | – | – | – | – | – | -0.15

Conditions | drug sensitivity score | relative viability EC50 [µM]
Caco-2 [10] | 0 | –
Caco-2 [15] | – | > 10
Calu-3 [8] | 0 | –
Calu-3 [13] | – | > 10
HepG2 [7] | 0 | –
HepG2 [12] | – | > 10
U2OS [6] | 0 | –
U2OS [11] | – | > 10
Vero E6 [9] | 0 | –
Vero E6 [14] | – | > 10

drug-induced phospholipidosis [%], A549-ACE2
Conditions | 0.3 µM | 0.833333 µM | 3.33333 µM | 6.66667 µM | 10 µM | 30 µM
24 h | -0.6 | -1.86 | -0.62 | 3.24 | 4.69 | 32.2
48 h | -3.03 | -3.25 | -1.5 | 0.99 | 1.91 | –
72 h | -3.98 | -4.86 | -3.52 | -0.549 | 1.82 | –

O=C1C=C2C=C[C@@H]3C[C@@]2(O1)[C@H]1CCCCN31 [securinine]
Conditions | SARS-CoV-2 infection rate, [16] [%] | cell count, [17] [%] | cell viability, Caco-2 [5] [%] | cell viability, Calu-3 [3] [%] | cell viability, HepG2 [2] [%] | cell viability, U2OS [1] [%] | cell viability, Vero E6 [4] [%] | morphology score, [18]
1 nM | – | – | 76.4 | 96.5 | 94.9 | 103 | 93.1 | –
10 nM | – | – | 91.5 | 88.5 | 103 | 94.9 | 101 | –
100 nM | – | – | 104 | 101 | 104 | 103 | 92.5 | –
0.3 µM | 108 | 92 | – | – | – | – | – | -0.16
1000 nM | – | – | 90.1 | 92.1 | 108 | 95.1 | 97.5 | –
3 µM | 107 | 97 | – | – | – | – | – | -0.26
10000 nM | – | – | 99.5 | 98.5 | 99.8 | 94.9 | 101 | –
10 µM | 109 | 103 | – | – | – | – | – | -0.24
30 µM | 87 | 84 | – | – | – | – | – | -0.11

Conditions | drug sensitivity score | relative viability EC50 [µM]
Caco-2 [10] | 0 | –
Caco-2 [15] | – | > 10
Calu-3 [8] | 0 | –
Calu-3 [13] | – | > 10
HepG2 [7] | 0 | –
HepG2 [12] | – | > 10
U2OS [6] | 0 | –
U2OS [11] | – | > 10
Vero E6 [9] | 0 | –
Vero E6 [14] | – | > 10

drug-induced phospholipidosis [%], A549-ACE2
Conditions | 0.3 µM | 0.833333 µM | 3.33333 µM | 6.66667 µM | 10 µM | 30 µM
24 h | 4.04 | -1.29 | -2.26 | -0.14 | 0.15 | 3.11
48 h | 4.43 | 0.73 | 0.81 | 3.64 | 1.66 | 8.62
72 h | 5.5 | -2.31 | 1.12 | 1.57 | 2.55 | 11.9

O=C1[C@@H]2[C@H]3CC[C@H](C3)[C@@H]2C(=O)N1CCCCN1CCN(c2ncccn2)CC1 [tandospirone]
cell viability [%]
Conditions | Caco-2 [5] | Calu-3 [3] | HepG2 [2] | U2OS [1] | Vero E6 [4]
1 nM | 93.6 | 113 | 107 | 98.3 | 107
10 nM | 95.5 | 103 | 97 | 98.6 | 104
100 nM | 94.1 | 92 | 110 | 98.5 | 98.5
1000 nM | 98.2 | 86.8 | 104 | 99.8 | 96.2
10000 nM | 95.4 | 99.7 | 99.7 | 97.7 | 101

Conditions | drug sensitivity score | relative viability EC50 [µM]
Caco-2 [10] | 0 | –
Caco-2 [15] | – | > 10
Calu-3 [8] | 1.3 | –
Calu-3 [13] | – | > 10
HepG2 [7] | 0 | –
HepG2 [12] | – | > 10
U2OS [6] | 0 | –
U2OS [11] | – | > 10
Vero E6 [9] | 0 | –
Vero E6 [14] | – | > 10

CCOC(=O)c1ccc(C#Cc2ccc3c(c2)C(C)(C)CCS3)nc1 [tazarotene]
cell viability [%]
Conditions | Caco-2 [5] | Calu-3 [3] | HepG2 [2] | U2OS [1] | Vero E6 [4]
1 nM | 91.3 | 99.5 | 108 | 93.7 | 101
10 nM | 96.3 | 101 | 92.8 | 98 | 97.7
100 nM | 96.4 | 100 | 119 | 92.2 | 94.9
1000 nM | 86 | 87.5 | 105 | 92.2 | 94.9
10000 nM | 83.8 | 91.2 | 110 | 93.6 | 110

Conditions | drug sensitivity score | relative viability EC50 [µM]
Caco-2 [10] | 0.7 | –
Caco-2 [15] | – | > 10
Calu-3 [8] | 0.7 | –
Calu-3 [13] | – | > 10
HepG2 [7] | 0 | –
HepG2 [12] | – | > 10
U2OS [6] | 0 | –
U2OS [11] | – | > 10
Vero E6 [9] | 0 | –
Vero E6 [14] | – | > 10
